From patent US8318947B2, “Comestible compositions comprising high potency savory flavorants, and processes for producing them” (Senomyx, Inc., priority 2006, dated 2012) come the findings set out here.

This assay addresses T1, hT1R1/hT1R3 umami receptor expressed in an HEK293 cell line (Homo sapiens, UniProt Q7RTX0+Q7RTX1).
T1 construct: expressed in transfected cells; host or cells: HEK293 cell line derivative, clone 1-17, expression induced with mifepristone
T1 sequence (Q7RTX1 21-841): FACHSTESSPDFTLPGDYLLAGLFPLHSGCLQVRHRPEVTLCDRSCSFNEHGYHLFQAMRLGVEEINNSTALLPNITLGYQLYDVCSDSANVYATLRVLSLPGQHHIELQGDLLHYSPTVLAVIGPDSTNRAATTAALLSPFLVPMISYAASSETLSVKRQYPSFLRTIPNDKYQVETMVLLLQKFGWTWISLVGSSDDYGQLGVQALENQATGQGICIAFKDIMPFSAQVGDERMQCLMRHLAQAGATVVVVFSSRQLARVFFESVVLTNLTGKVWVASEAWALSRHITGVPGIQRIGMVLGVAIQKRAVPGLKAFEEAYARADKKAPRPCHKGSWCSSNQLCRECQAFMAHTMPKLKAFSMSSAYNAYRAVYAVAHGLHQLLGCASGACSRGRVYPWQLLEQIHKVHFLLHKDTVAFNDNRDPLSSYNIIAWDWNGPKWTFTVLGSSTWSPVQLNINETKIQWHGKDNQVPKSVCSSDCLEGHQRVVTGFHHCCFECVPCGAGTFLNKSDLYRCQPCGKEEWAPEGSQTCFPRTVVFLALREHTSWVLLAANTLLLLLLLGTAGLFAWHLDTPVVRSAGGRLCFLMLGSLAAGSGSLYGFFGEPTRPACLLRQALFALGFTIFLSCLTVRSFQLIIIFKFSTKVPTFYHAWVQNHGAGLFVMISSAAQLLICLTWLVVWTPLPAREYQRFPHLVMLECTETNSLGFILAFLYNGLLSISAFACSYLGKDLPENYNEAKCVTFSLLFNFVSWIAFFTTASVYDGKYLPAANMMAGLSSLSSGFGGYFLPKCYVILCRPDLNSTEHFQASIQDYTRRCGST
T1 sequence (Q7RTX0 21-852): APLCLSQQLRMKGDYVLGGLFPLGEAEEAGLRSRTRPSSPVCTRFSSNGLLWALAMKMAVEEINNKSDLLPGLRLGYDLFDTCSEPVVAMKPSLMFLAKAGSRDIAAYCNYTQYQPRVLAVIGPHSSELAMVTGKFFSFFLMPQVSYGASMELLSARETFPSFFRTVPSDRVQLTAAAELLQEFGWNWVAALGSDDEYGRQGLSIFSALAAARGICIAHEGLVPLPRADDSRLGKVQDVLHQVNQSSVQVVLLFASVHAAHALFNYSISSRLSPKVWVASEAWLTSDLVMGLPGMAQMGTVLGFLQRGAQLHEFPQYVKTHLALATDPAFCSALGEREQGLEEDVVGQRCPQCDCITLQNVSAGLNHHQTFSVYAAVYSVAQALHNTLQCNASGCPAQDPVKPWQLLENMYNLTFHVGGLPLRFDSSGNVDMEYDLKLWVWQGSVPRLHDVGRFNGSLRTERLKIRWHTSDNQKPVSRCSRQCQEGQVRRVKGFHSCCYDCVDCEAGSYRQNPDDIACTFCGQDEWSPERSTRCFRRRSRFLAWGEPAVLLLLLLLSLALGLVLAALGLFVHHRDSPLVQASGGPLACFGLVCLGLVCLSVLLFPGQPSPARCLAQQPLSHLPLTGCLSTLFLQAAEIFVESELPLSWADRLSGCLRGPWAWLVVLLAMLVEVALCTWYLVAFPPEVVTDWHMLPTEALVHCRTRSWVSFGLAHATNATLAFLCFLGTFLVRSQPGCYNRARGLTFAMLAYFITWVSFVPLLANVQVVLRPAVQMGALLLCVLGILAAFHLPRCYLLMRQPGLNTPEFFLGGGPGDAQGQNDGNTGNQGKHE
As to the kind of experiment: Umami taste enhancement assay (EC50 ratio vs. MSG). The format is cell-based. The text has this: In umami taste enhancement activity assay experiments, which produce an “EC50 ratio” measurement of how effectively the amide compounds of the invention enhance the savory flavorant (typically MSG) already in a test solution. A series of measurements of the dose response is run in solutions comprising MSG alone, then a second dose response is run with MSG in combination with predetermined amounts of a candidate compound of Formula (I) at the same time.
In this assay, increasing concentrations of monosodium glutamate (ranging from 12 μM to 81 mM) were presented, in duplicates, in the presence or absence of a fixed concentration of the test compound. Typical compound concentrations tested were 30 μM, 10 μM, 3 μM, 1 μM, 0.3 μM, 0.1 μM and 0.03 μM. The relative efficacy of compounds of […] at enhancing the receptor was determined by calculating the magnitude of a shift in the EC50 for monosodium glutamate. Enhancement was defined as a ratio (EC50R) corresponding to the EC50 of monosodium glutamate, determined in the absence of the test compound, divided by the EC50 of monosodium glutamate, determined in the presence of the test compound.
Stated alternatively, “EC50 ratio” as compared to MSG is calculated based on the following definitions:
EC50 Ratio vs. MSG=EC50 (MSG)/EC50 (MSG+[Compound]) wherein “[compound]” refers to the concentration of the compound of Formula (I) used to elicit (or enhance or potentiate) the MSG dose response.
It should be noted that the EC50 ratio measured can depend somewhat on the concentration of the compound itself. Preferred savory enhancers would have a high EC50 Ratio vs. MSG at a low concentration of the compound used.

On to `COc1ccc(CNC(=O)C(=O)NCCc2ccccn2)c(OC)c1` [Example 24, N-(2,4-Dimethoxy-benzyl)-N′-(2-pyridin-2-yl-ethyl)-oxalamide], for which the “EC50 ratio (enhancement of the effectiveness of monosodium glutamate)” value (compound present at 0.3 μM) turned out to be 6.51. On to `CCCC(CCC)NC(=O)c1ccc2c(c1)OCO2` [Example 1, N-(heptan-4-yl)benzo[d][1,3]dioxole-5-carboxamide], for which the “EC50 ratio (enhancement of the effectiveness of monosodium glutamate)” value (compound present at 0.03 μM) is given as 6.92.
